Source: patent publication US8772500B2, “TRPV3 modulators” (AbbVie Inc., priority 2011, dated 2014)
Read-outs that look alike come from different tables or passages of the source.

What was measured:
[1] = In vitro human microsomal stability assay; assay type: in vitro ADME; details: for HUMAN […] (% REMAINING AFTER 30 MINUTES): 0.5 μM substrate, 0.25 mg/mL microsomal protein, pH 7.4, 37° C., NADPH; for HUMAN MICROSOMAL STABILITY (% REMAINING AFTER 30 MINUTES): 0.5 h, 0.5 μM, pH 7.4
Summary of the method: (§1)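 Liver microsomes: Sprague-Dawley rat for rat assay, human for human assay; 37 °C; NADPH cofactor, also spiked into time-zero plates.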

[2] = In vitro rat microsomal stability assay; assay type: in vitro ADME, rat (Sprague-Dawley); details: for RAT […] (% REMAINING AFTER 30 MINUTES): 0.5 μM substrate, 0.25 mg/mL microsomal protein, pH 7.4, 37° C., NADPH; for RAT MICROSOMAL STABILITY (% REMAINING AFTER 30 MINUTES): Sprague-Dawley, 0.5 h, 0.5 μM, pH 7.4
Summary of the method: as §1

human TRPV3 = target: T1, human TRPV3 (Homo sapiens, UniProt Q8NET8); experiment: In vitro antagonism of recombinant human TRPV3 activation (FLIPR Tetra calcium assay, 2-APB as agonist); assay type: cell-based; details: HEK293 cells stably expressing human TRPV3, 2-APB 80 μM
T1 construct: expressed in transfected cells
T1 sequence (Q8NET8 1-790): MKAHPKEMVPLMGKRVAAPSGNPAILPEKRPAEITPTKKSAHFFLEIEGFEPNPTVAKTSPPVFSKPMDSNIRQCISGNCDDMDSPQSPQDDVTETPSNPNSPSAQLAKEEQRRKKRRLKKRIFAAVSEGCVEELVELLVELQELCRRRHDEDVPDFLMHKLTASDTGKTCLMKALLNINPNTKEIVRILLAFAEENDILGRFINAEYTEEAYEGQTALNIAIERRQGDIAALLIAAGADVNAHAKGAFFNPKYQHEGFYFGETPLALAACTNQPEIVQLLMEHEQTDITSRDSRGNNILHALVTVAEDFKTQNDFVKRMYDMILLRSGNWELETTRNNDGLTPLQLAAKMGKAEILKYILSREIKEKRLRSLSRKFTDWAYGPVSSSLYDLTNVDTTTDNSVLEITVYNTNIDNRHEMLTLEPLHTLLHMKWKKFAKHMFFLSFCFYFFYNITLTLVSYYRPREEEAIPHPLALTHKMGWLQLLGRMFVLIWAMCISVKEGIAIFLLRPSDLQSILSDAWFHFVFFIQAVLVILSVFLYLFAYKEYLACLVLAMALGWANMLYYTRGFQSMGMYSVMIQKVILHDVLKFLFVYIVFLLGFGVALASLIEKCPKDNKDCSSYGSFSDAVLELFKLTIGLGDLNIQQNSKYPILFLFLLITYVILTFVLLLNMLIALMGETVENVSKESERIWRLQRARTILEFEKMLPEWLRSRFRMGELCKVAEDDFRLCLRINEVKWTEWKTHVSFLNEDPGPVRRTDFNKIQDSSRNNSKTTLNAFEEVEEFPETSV
Protocol: Test compounds were evaluated for ability to antagonize the activation of recombinant human TRPV3 using FLIPR® Tetra cellular screening. Specifically, on the day prior to the experiment recombinant HEK293 cells that stably express human TRPV3 were removed from tissue culture flasks and plated in growth medium at 20,000 cells/well into Poly-d-lysine coated black/clear 384-well Plate (Corning, 3845) using a Multidrop® dispenser (ThermoScientific, Waltham, Mass.). Prior to the start of the assay, the medium was removed by aspiration, and cells were loaded with 30 μL no-wash FLIPR® Calcium-4 dye (λEX=470-495 nm, λEM=515-575 nm; Molecular Devices, Sunnyvale, Calif.). The cells were then incubated for 90-120 minutes in the dark prior to addition of the test compound.
A double-addition protocol was used. The test compound (i.e., the TRPV3 antagonist) was added at the 10 second time point, followed by the addition of a TRPV3 agonist three minutes later. Each test compound evaluated was first dissolved in DMSO to prepare a 10 mM stock solution. A solution (5×) of the test compound was then prepared in DPBS (Dulbecco's Phosphate Buffered Saline) and 10 μL of that solution was added to the cells at a delivery rate of 40 μL/sec. The TRPV3 agonist used to activate human TRPV3 expressed by the […] was 2-aminoethoxy-diphenyl borate (2-APB; Tocris Cookson, Ellisville, Mo.) at 80 μM. Final assay volume was 50 μL. Total length of an experimental run was 10 minutes.
Changes in fluorescence were measured over time using the FLIPR® instrument. The intensity of the fluorescence was captured and digitally transferred to an interfaced computer. The maximum response minus minimum response was calculated and expressed as the percentage of the maximum 2-APB response in the absence of antagonist. The concentration of 2-APB corresponds to its EC80.
Table 1 reports the IC50 values measured for the test compounds as human TRPV3 antagonists. […] Actual measured values are shown parenthetically after the reported range. In most cases, the values reported are average values from at least two runs (i.e., n≧2).

[3] = range class, read-out: IC50 (reported range)
[4] = mostly average of n≧2, read-out: IC50 (actual measured value, shown parenthetically)

IC50 (human TRPV3; [3]) [nM] | HUMAN MICROSOMAL STABILITY (% REMAINING AFTER 30 MINUTES) [1] [%] | RAT MICROSOMAL STABILITY (% REMAINING AFTER 30 MINUTES) [2] [%] | IC50 (human TRPV3; [4]) [nM] | SMILES | HUMAN […] (% REMAINING AFTER 30 MINUTES) [1] [%] | RAT […] (% REMAINING AFTER 30 MINUTES) [2] [%]
50 to 500 | >85 | 74 |  | OC1CC(c2ccc(Cl)c(Cl)c2)(C(O)c2ccccn2)C1 (single isomer, unassigned) [Example 118] |  | 
501 to 1000 | >85 | 69 |  | OC1CC(c2ccc(Cl)c(Cl)c2)(C(O)c2ccccn2)C1 (single isomer, unassigned) [Example 119] |  | 
501 to 1000 | 78 | 72 |  | CC1(O)CC(c2ccc(OC(F)(F)F)cc2)(C(O)c2ccccn2)C1 (single isomer, unassigned) [Example 134] |  | 
1100 to 5000 | 80 | 67 |  | CC1(O)CC(c2ccc(C(F)(F)F)cc2)(C(O)c2ccccn2)C1 (single isomer, unassigned) [Example 232] |  | 
501 to 1000 | 54 | 41 |  | CC1(O)CC(c2cccc(C(F)(F)F)c2)(C(O)c2ccccn2)C1 (single isomer, unassigned) [Example 236] |  | 
5100 to 20000 | 40 | 12 | 11200 | OC(c1ccccn1)C1(C2=CCCOC2)CCC1 (single isomer, unassigned) [Example 269, [1-(5,6-dihydro-2H-pyran-3-yl)cyclobutyl](pyridin-2-yl)methanol] |  | 
1100 to 5000 | 17 | 0.48 | 3940 | OC(c1ccccn1)C1(C2=COCCC2)CCC1 (single isomer, unassigned) [Example 270, [1-(3,4-dihydro-2H-pyran-5-yl)cyclobutyl](pyridine-2-yl)methanol] |  | 
> 20000 | >85 | 71 |  | OC1CC(c2cc(C(F)(F)F)ccn2)(C(O)c2ccccn2)C1 (single isomer, unassigned) [Example 290] |  | 
501 to 1000 |  | 0.27 |  | CCN(CC)c1ccc(C2(C(O)c3ccccn3)CCC2)cc1 (stereo not shown) [Example 18, {1-[4-(diethylamino)phenyl]cyclobutyl}(pyridin-2-yl)methanol] |  | 
501 to 1000 |  | 7.7 |  | OC(c1ncccn1)C1(c2cccc(OC(F)(F)F)c2)CCC1 (stereo not shown) [Example 37, pyrimidin-2-yl{1-[3-(trifluoromethoxy)phenyl]cyclobutyl}methanol] |  | 
50 to 500 |  | 9.5 |  | OC(c1ncccn1)C1(c2ccc(Cl)c(Cl)c2)CCC1 (stereo not shown) [Example 38, [1-(3,4-dichlorophenyl)cyclobutyl](pyrimidin-2-yl)methanol] |  | 
> 20000 |  | 0.21 |  | CC(c1cccc(C(F)(F)F)c1)C1(C(O)c2ccccn2)CCC1 (stereo not shown) [Example 54, pyridin-2-yl(1-{1-[3-(trifluoromethyl)phenyl]ethyl}cyclobutyl)methanol] |  | 
1100 to 5000 |  |  |  | NC1CCCCC1C(O)C1(c2ccc(C(F)(F)F)cc2)CCC1 (stereo not shown) [Example 207, (2-aminocyclohexyl){1-[4-(trifluoromethyl)phenyl]cyclobutyl}methanol] |  | 
1100 to 5000 |  | 36 |  | NC1CCCC1C(O)C1(c2cccc(OC(F)(F)F)c2)CCC1 (stereo not shown) [Example 208, (2-aminocyclopentyl){1-[3-(trifluoromethoxy)phenyl]cyclobutyl}methanol] |  | 
1100 to 5000 |  |  |  | NC1CCCCC1C(O)C1(c2ccc(OC(F)(F)F)cc2)CCC1 (stereo not shown) [Example 209, (2-aminocyclohexyl){1-[4-(trifluoromethoxy)phenyl]cyclobutyl}methanol] |  | 
1100 to 5000 |  |  |  | NC1CCCCC1C(O)C1(c2cccc(OC(F)(F)F)c2)CCC1 (stereo not shown) [Example 210, (2-aminocyclohexyl){1-[3-(trifluoromethoxy)phenyl]cyclobutyl}methanol] |  | 
5100 to 20000 |  |  |  | NC1CCCCC1C(O)C1(c2ccc(Cl)c(Cl)c2)CCC1 (stereo not shown) [Example 211, (2-aminocyclohexyl) [1-(3,4-dichlorophenyl)cyclobutyl]methanol] |  | 
1100 to 5000 |  |  |  | NC1CCCC1C(O)C1(c2ccccc2OC(F)(F)F)CCC1 (stereo not shown) [Example 214, (2-aminocyclopentyl){1-[2-(trifluoromethoxy)phenyl]cyclobutyl}methanol] |  | 
501 to 1000 |  |  |  | NC1CCCC1C(O)C1(c2ccc(Cl)c(Cl)c2)CCC1 (stereo not shown) [Example 215, (2-aminocyclopentyl) [1-(3,4-dichlorophenyl)cyclobutyl]methanol] |  | 
1100 to 5000 |  |  |  | N[C@H]1CCC[C@H]1[C@@H](O)C1(c2ccc(Cl)c(Cl)c2)CCC1 [Example 218, (R)-[(1R,2S)-2-aminocyclopentyl][1-(3,4-dichlorophenyl)cyclobutyl]-methanol] |  | 
1100 to 5000 |  |  |  | N[C@H]1CCC[C@@H]1[C@H](O)C1(c2ccc(Cl)c(Cl)c2)CCC1 [Example 219, (S)-[(1S,2S)-2-aminocyclopentyl][1-(3,4-dichlorophenyl)cyclobutyl]-methanol] |  | 
1100 to 5000 |  | >85 |  | CC1(O)CC(c2cccc(OC(F)(F)F)c2)(C(O)c2ccccn2)C1 [Example 263, trans-3-[(S)-hydroxy(pyridin-2-yl)methyl]-1-methyl-3-[3-(trifluoromethoxy)-phenyl]cyclobutanol] |  | 
501 to 1000 |  |  |  | CC1(O)CC(c2ccnc(C(F)(F)F)c2)(C(O)c2ccccn2)C1 [Example 302, cis-3-[(S)-hydroxy(pyridin-2-yl)methyl]-1-methyl-3-[2-(trifluoromethyl)-pyridin-4-yl]cyclobutanol] |  | 

SMILES | IC50 (human TRPV3; [3]) [nM] | HUMAN MICROSOMAL STABILITY (% REMAINING AFTER 30 MINUTES) [1] [%] | RAT MICROSOMAL STABILITY (% REMAINING AFTER 30 MINUTES) [2] [%] | IC50 (human TRPV3; [4]) [nM] | HUMAN […] (% REMAINING AFTER 30 MINUTES) [1] [%] | RAT […] (% REMAINING AFTER 30 MINUTES) [2] [%]
O[C@H](c1ccccn1)[C@]1(c2cccc(C(F)(F)F)c2)C[C@H](O)C1 (relative stereo) [Example 259, cis-3-[(S)-hydroxy(pyridin-2-yl)methyl]-3-[3-(trifluoromethyl)phenyl]-cyclobutanol] | 50 to 500 |  |  |  | 76 | 73
O[C@H](c1ccccn1)[C@]1(c2cccc(C(F)(F)F)c2)C[C@@H](O)C1 (relative stereo) [Example 264, trans-3-[(S)-hydroxy(pyridin-2-yl)methyl]-3-[3-(trifluoromethyl)phenyl]-cyclobutanol] | 50 to 500 |  |  |  | 56 | 59
CC1(O)CC(c2cncc(C(F)(F)F)c2)([C@H](O)c2ccccn2)C1 (stereo in doubt) [Example 309, trans-3-[(S)-hydroxy(pyridin-2-yl)methyl]-1-methyl-3-[5-(trifluoromethyl)-pyridin-3-yl]cyclobutanol] | 1100 to 5000 |  |  |  | >85 | 
